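How tested: cells in 96-well plates exposed to compound for 48 hours at five concentrations. Abbreviation: GI50, concentration required for 50% inhibition of growth. The concentration for full growth arrest is given as TGI.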 Where a SMILES comes first, the peptide text is derived from it. Bridges are numbered along the chain shown (N, C = ends). [ ]: non-standard residue; d: D form. The star is where a group is joined. ξ: configuration not given here. X26 = O=C(/C=C/C=C/C=C/C=C/C=C/C(=O)*)NC1=C(O)CCC1=O; NMeA = CN[C@@H](C)C(=O)O; ξF = NC(Cc1ccccc1)C(=O)O; ξA = CC(N)C(=O)O
Assays:
Assay in all cases: NCI anticancer screen, dose series, 48 h
CAKI-1 renal = tested on: CAKI-1 renal
K-562 leukemia = tested on: K-562 leukemia
SNB-75 CNS = tested on: SNB-75 CNS
MALME-3M melanoma = tested on: MALME-3M melanoma
786-0 renal = tested on: 786-0 renal
IGROV1 ovarian = tested on: IGROV1 ovarian
UO-31 renal = tested on: UO-31 renal
NCI-H23 lung = tested on: NCI-H23 lung
SK-MEL-2 melanoma = tested on: SK-MEL-2 melanoma
NCI/ADR-RES ovarian = tested on: NCI/ADR-RES ovarian

Row | SMILES | TGI (CAKI-1 renal) | TGI (K-562 leukemia) | TGI (SNB-75 CNS) | TGI (MALME-3M melanoma) | TGI (786-0 renal) | TGI (IGROV1 ovarian) | TGI (UO-31 renal) | TGI (NCI-H23 lung) | TGI (SK-MEL-2 melanoma) | TGI (NCI/ADR-RES ovarian) | GI50 (IGROV1 ovarian)
1 | CSc1c(C#N)c(N)n(-c2ccc(C)cc2)c(=O)c1C#N | > 100 µM | > 100 µM | > 100 µM | > 100 µM | > 100 µM | > 100 µM | > 100 µM | > 100 µM | > 100 µM | > 100 µM | –
2 | COc1cc2nc(-c3cccs3)oc(=O)c2cc1OC | > 100 µM | > 100 µM | > 100 µM | > 100 µM | > 100 µM | > 100 µM | > 100 µM | > 100 µM | > 100 µM | > 100 µM | –
3 | O=c1[nH]cnc2c1ncn2[C@@H]1C[C@@H]1CO | > 100 µM | > 100 µM | > 100 µM | > 100 µM | > 100 µM | > 100 µM | > 100 µM | > 100 µM | > 100 µM | > 100 µM | –
4 | CC(=O)O[C@H]1C(=O)[C@@]2(C)[C@H]([C@H](OC(=O)c3ccc(F)cc3)[C@]3(O)C[C@H](OC(=O)[C@H](O)[C@@H](NC(=O)c4ccccc4)c4ccccc4)C(C)=C1C3(C)C)[C@]1(OC(C)=O)CO[C@@H]1C[C@@H]2O | > 25 µM | 0.172 µM | 0.659 µM | > 25 µM | > 25 µM | > 25 µM | > 25 µM | > 25 µM | 9.73 µM | > 25 µM | –
5 | Nc1ccc(-c2nc3ccccc3s2)cc1C(F)(F)F | 28.7 µM | 46.6 µM | 27.9 µM | 29.4 µM | 26.6 µM | 21.1 µM | 29.4 µM | 28 µM | 31.3 µM | 35.2 µM | 2.6 µM
6 | CC(=O)c1cccn1/C=C(\OC(=O)OC(C)(C)C)c1ccc[nH]1 | 91.2 µM | > 100 µM | 67.2 µM | > 100 µM | > 100 µM | > 100 µM | > 100 µM | > 100 µM | > 100 µM | > 100 µM | –
7 | CC1NC(=O)[C@H](C)N(C)C(=O)[C@@H]2CCCN2C(=O)[C@@H](NC(=O)C(Cc2ccccc2)NC(=O)/C=C/C=C/C=C/C=C/C=C/C(=O)NC2=C(O)CCC2=O)COC(=O)[C@@H]2CCCN2C1=O (stereo partly specified) (X26-[ξF]SP[NMeA][ξA]P; ester 2-C) | > 100 µM | > 100 µM | > 100 µM | > 100 µM | > 100 µM | > 100 µM | > 100 µM | > 100 µM | > 100 µM | > 100 µM | –
8 | CCc1c[n+]([O-])c(C)cc1[N+](=O)[O-] | > 100 µM | > 100 µM | > 100 µM | 97.3 µM | > 100 µM | > 100 µM | > 100 µM | > 100 µM | > 100 µM | > 100 µM | –
9 | c1csc(-c2ccc(-c3cccs3)c3nsnc23)c1 | > 100 µM | 37.9 µM | > 100 µM | > 55.8 µM | > 54 µM | > 88.4 µM | > 100 µM | > 68.4 µM | > 100 µM | > 83.7 µM | –
10 | NNC1=N/C(=C\c2ccco2)C(Cl)=N1 | > 100 µM | 42 µM | > 100 µM | > 100 µM | > 100 µM | > 100 µM | > 100 µM | > 100 µM | > 100 µM | > 100 µM | –
11 | Clc1ccc(CSCCc2ccncc2)cc1Cl | > 100 µM | 51 µM | 77.6 µM | 42.4 µM | 33.1 µM | 52.2 µM | 56.9 µM | 51.1 µM | 30.8 µM | 50.5 µM | –
12 | CCCCn1cnc2c(c(CC#N)nn2-c2ccccc2)c1=N | > 100 µM | > 100 µM | > 100 µM | > 100 µM | > 100 µM | > 100 µM | > 100 µM | > 100 µM | 62.1 µM | > 100 µM | –
13 | COC(=O)CN1c2nc(C#N)c(C#N)nc2N(CC(=O)OC)c2nc(C#N)c(C#N)nc21 | 1.55 µM | > 33.9 µM | 30.4 µM | 3.01 µM | 5.21 µM | 23.4 µM | > 25.6 µM | > 29.8 µM | > 100 µM | > 100 µM | –
14 | C/C1=C\CC[C@@]2(C)O[C@@H]2C[C@@H](C2(C)CO2)CC/C(C)=C/CC1 (stereo partly specified) | 39.9 µM | > 100 µM | 93.7 µM | 32.5 µM | 31.8 µM | > 100 µM | 55.9 µM | 48.8 µM | 71.8 µM | 46.8 µM | –
15 | CC1CN=C(N(C(=O)Nc2ccc(F)c(Cl)c2)c2ccccc2)S1 (stereo unspecified) | 67 µM | > 100 µM | 63.7 µM | 78.5 µM | 56 µM | > 100 µM | 98.1 µM | 52 µM | 32.8 µM | 43 µM | –
16 | CC[n+]1[b-](C(C)(C)C)n(/N=C/C(C)(C)C)[b-](C(C)(C)C)[n+]1CC | > 100 µM | > 100 µM | > 100 µM | > 100 µM | > 100 µM | > 100 µM | > 100 µM | > 100 µM | > 100 µM | > 100 µM | –
17 | COC(=O)c1cc2c(cc1CC1Cc3cc4c(cc3C1)CCC4)CCC2 | > 100 µM | > 100 µM | > 100 µM | > 100 µM | > 100 µM | > 100 µM | > 100 µM | > 100 µM | 54 µM | > 100 µM | –
18 | C[C@@H](Cl)[C@H]1CCCN(Cc2ccc(Br)cc2)C1 | > 12.5 µM | > 12.5 µM | > 12.5 µM | > 12.5 µM | > 12.5 µM | > 12.5 µM | > 12.5 µM | > 12.5 µM | > 12.5 µM | > 12.5 µM | –
19 | COc1ccc(S(=O)(=O)N2C(=O)CCC2C(=O)NN)cc1 (stereo unspecified) | > 100 µM | > 100 µM | > 100 µM | > 100 µM | > 100 µM | > 100 µM | > 100 µM | > 100 µM | > 100 µM | > 100 µM | –
20 | NCCCN1CCN(CCCNc2ccc3nnn4c5ccccc5c(=O)c2c34)CC1 | 59.2 µM | > 100 µM | 48.3 µM | 39.1 µM | 33.1 µM | 33.9 µM | 90.7 µM | 33.3 µM | 36.1 µM | > 100 µM | –
21 | Nc1nc(Cl)cc(NCC2(CO)CCC(CCc3ccccc3)C2)n1 (stereo unspecified) | 30.2 µM | 41.6 µM | 39.4 µM | 33.3 µM | 31.9 µM | 37 µM | 33.3 µM | 25.1 µM | 34.5 µM | 51.2 µM | –
22 | COC(C)(C)[C@@H](O)[C@H]1C[C@H](C)[C@@]2(CC[C@]3(C)[C@@H]2CC[C@@H]2[C@@]4(C)CC[C@@H](OC(C)=O)C(C)(C)[C@@H]4C[C@@H](OC4OC(COC(C)=O)C(O)C(O)C4O)[C@]23C)O1 (stereo partly specified) | 24.1 µM | 21.3 µM | 16.5 µM | 23.4 µM | 18.7 µM | 16.6 µM | 15.5 µM | 25.8 µM | 19.7 µM | 22.5 µM | –
23 | O=C(O)c1cc(-c2ccc3c(O)c(O)ccc3c2)ccc1O | 25.6 µM | 32.2 µM | > 75 µM | > 75 µM | > 75 µM | > 75 µM | > 75 µM | > 75 µM | > 75 µM | > 75 µM | –
24 | Cc1ccc(OCCn2cc(Nc3ccccc3)c(=O)n(CCOc3ccc(C)cc3)c2=O)cc1 | > 100 µM | > 100 µM | > 100 µM | > 100 µM | > 100 µM | > 100 µM | > 100 µM | > 100 µM | > 100 µM | > 100 µM | –
25 | COC(=O)c1c2c(cc3c1CCC3)CCC2 | > 100 µM | > 100 µM | > 100 µM | > 100 µM | > 100 µM | > 100 µM | > 100 µM | > 100 µM | 64.3 µM | > 100 µM | –
26 | C=C1c2cc3c(cc2CC12Cc1cc4c(cc1C2=O)CCC4)CCC3 (stereo unspecified) | > 100 µM | > 100 µM | > 100 µM | > 100 µM | > 100 µM | > 100 µM | > 100 µM | > 100 µM | > 100 µM | > 100 µM | –
27 | Cc1cc(-c2nc3ccccc3s2)ccc1NC(=O)[C@@H](N)CCCCN | 20.8 µM | > 54 µM | 13 µM | 34.8 µM | 13.2 µM | 17.2 µM | 19.3 µM | 17.5 µM | 30 µM | 36.5 µM | –
